Source: ChEMBL document CHEMBL1201861, “Genomics of Drug Sensitity in Cancer screening data, Wellcome Trust Sanger Institute”

Columns and labels:
Assay in all cases: cells
Assay type in all cases: functional, cell-based, Homo sapiens
D-247MG = settings: Homo sapiens, D-247MG
Description: SANGER: Inhibition of human D-247MG cell growth in a cell viability assay.

DJM-1 = settings: Homo sapiens, DJM-1;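 further: growth inhibition of human DJM-1 cells, read out by a cell viability assay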
Description: SANGER: Inhibition of human DJM-1 cell growth in a cell viability assay.

DMS-79 = settings: Homo sapiens, DMS-79;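 further: growth inhibition measured with a cell viability assay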
Description: SANGER: Inhibition of human DMS-79 cell growth in a cell viability assay.

DU-4475 = settings: Homo sapiens, DU-4475
Description: SANGER: Inhibition of human DU-4475 cell growth in a cell viability assay.

EW-1 = settings: Homo sapiens, EW-1
Description: SANGER: Inhibition of human EW-1 cell growth in a cell viability assay.

EW-18 = settings: Homo sapiens, EW-18;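 further: growth inhibition of EW-18 cells, read out by a cell viability assay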
Description: SANGER: Inhibition of human EW-18 cell growth in a cell viability assay.

GAK = settings: Homo sapiens, GAK;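 further: cell growth inhibition read out by a cell viability assay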
Description: SANGER: Inhibition of human GAK cell growth in a cell viability assay.

GB-1 = settings: Homo sapiens, GB-1;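 further: growth of GB-1 cells judged by a viability assay, IC50 marks the concentration inhibiting growth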
Description: SANGER: Inhibition of human GB-1 cell growth in a cell viability assay.

HCC 2998 = settings: Homo sapiens, HCC 2998;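 further: growth inhibition of human HCC2998 cells, measured with a cell viability read-out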
Description: SANGER: Inhibition of human HCC2998 cell growth in a cell viability assay.

HDLM-2 = settings: Homo sapiens, HDLM-2;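 further: cell viability assay measuring suppression of HDLM-2 proliferation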
Description: SANGER: Inhibition of human HDLM-2 cell growth in a cell viability assay.

IST-MEL1 = settings: Homo sapiens, IST-MEL1;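 further: growth inhibition of the cell line, read out with a cell viability assay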
Description: SANGER: Inhibition of human IST-MEL1 cell growth in a cell viability assay.

K562 = settings: Homo sapiens, K562
Description: SANGER: Inhibition of human K-562 cell growth in a cell viability assay.

KALS-1 = settings: Homo sapiens, KALS-1;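 further: growth inhibition of KALS-1 cells, determined with a cell viability assay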
Description: SANGER: Inhibition of human KALS-1 cell growth in a cell viability assay.

KINGS-1 = settings: Homo sapiens, KINGS-1;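 further: cell viability assay measuring suppression of KINGS-1 cell growth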
Description: SANGER: Inhibition of human KINGS-1 cell growth in a cell viability assay.

L-363 = settings: Homo sapiens, L-363
Description: SANGER: Inhibition of human L-363 cell growth in a cell viability assay.

LOX IMVI = settings: Homo sapiens, LOX IMVI
Description: SANGER: Inhibition of human LOXIMVI cell growth in a cell viability assay.

LS-123 = settings: Homo sapiens, LS-123
Description: SANGER: Inhibition of human LS-123 cell growth in a cell viability assay.

MOLT-4 = settings: Homo sapiens, MOLT-4;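 further: growth inhibition of MOLT-4 cells, determined with a cell viability readout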
Description: SANGER: Inhibition of human MOLT-4 cell growth in a cell viability assay.

MS-1 = settings: Homo sapiens, MS-1;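 further: growth inhibition of MS-1 cells, read out by cell viability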
Description: SANGER: Inhibition of human MS-1 cell growth in a cell viability assay.

Mo = settings: Homo sapiens, Mo
Description: SANGER: Inhibition of human Mo-T cell growth in a cell viability assay.

NB10 = settings: Homo sapiens, NB10;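 further: growth inhibition of NB10 cells, read out by a cell viability assay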
Description: SANGER: Inhibition of human NB10 cell growth in a cell viability assay.

NB17 = settings: Homo sapiens, NB17;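 further: growth inhibition of NB17 cells, read out with a cell viability assay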
Description: SANGER: Inhibition of human NB17 cell growth in a cell viability assay.

NCI-H1299 = settings: Homo sapiens, NCI-H1299;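 further: growth inhibition of human NCI-H1299 cells, read out by a cell viability assay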
Description: SANGER: Inhibition of human NCI-H1299 cell growth in a cell viability assay.

NCI-H1304 = settings: Homo sapiens, NCI-H1304;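 further: growth inhibition of the cancer cell line, measured in a cell viability assay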
Description: SANGER: Inhibition of human NCI-H1304 cell growth in a cell viability assay.

NCI-H1581 = settings: Homo sapiens, NCI-H1581;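 further: cell growth inhibition read out by a viability assay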
Description: SANGER: Inhibition of human NCI-H1581 cell growth in a cell viability assay.

NCI-H1770 = settings: Homo sapiens, NCI-H1770;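 further: growth inhibition of NCI-H1770 cells determined with a viability readout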
Description: SANGER: Inhibition of human NCI-H1770 cell growth in a cell viability assay.

NCI-H526 = settings: Homo sapiens, NCI-H526;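 further: growth inhibition of the human NCI-H526 cell line, measured by a cell viability assay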
Description: SANGER: Inhibition of human NCI-H526 cell growth in a cell viability assay.

OCI-AML2 = settings: Homo sapiens, OCI-AML2;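 further: growth inhibition of OCI-AML2 cells, read out with a cell viability assay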
Description: SANGER: Inhibition of human OCI-AML2 cell growth in a cell viability assay.

OCUB-M = settings: Homo sapiens, OCUB-M;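 further: growth inhibition of the cancer cell line, read out through a cell viability assay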
Description: SANGER: Inhibition of human OCUB-M cell growth in a cell viability assay.

OVCAR-4 = settings: Homo sapiens, OVCAR-4;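 further: growth inhibition of human OVCAR-4 cells, measured with a cell viability assay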
Description: SANGER: Inhibition of human OVCAR-4 cell growth in a cell viability assay.

PSN1 = settings: Homo sapiens, PSN1;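 further: suppression of growth of human PSN1 cells, read out by a cell viability assay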
Description: SANGER: Inhibition of human PSN1 cell growth in a cell viability assay.

RH-1 = settings: Homo sapiens, RH-1;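 further: growth inhibition of human RH-1 cells, read out with a cell viability assay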
Description: SANGER: Inhibition of human RH-1 cell growth in a cell viability assay.

RPMI-8226 = settings: Homo sapiens, RPMI-8226
Description: SANGER: Inhibition of human RPMI-8226 cell growth in a cell viability assay.

RPMI-8866 = settings: Homo sapiens, RPMI-8866
Description: SANGER: Inhibition of human RPMI-8866 cell growth in a cell viability assay.

RXF 393 = settings: Homo sapiens, RXF 393;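 further: growth inhibition of human RXF 393 cells, read out with a cell viability assay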
Description: SANGER: Inhibition of human RXF393 cell growth in a cell viability assay.

Ramos-2G6-4C10 = settings: Homo sapiens, Ramos-2G6-4C10;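 further: growth inhibition of the cell line, measured by a cell viability read-out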
Description: SANGER: Inhibition of human Ramos-2G6-4C10 cell growth in a cell viability assay.

SCC-15 = settings: Homo sapiens, SCC-15;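 further: growth inhibition of SCC-15 cells, read out with a cell viability assay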
Description: SANGER: Inhibition of human SCC-15 cell growth in a cell viability assay.

SCH = settings: Homo sapiens, SCH;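 further: growth inhibition of human SCH cells, read out in a cell viability assay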
Description: SANGER: Inhibition of human SCH cell growth in a cell viability assay.

SF-268 = settings: Homo sapiens, SF-268;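 further: growth inhibition of SF-268 cells determined with a cell viability assay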
Description: SANGER: Inhibition of human SF268 cell growth in a cell viability assay.

SK-MEL-2 = settings: Homo sapiens, SK-MEL-2;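 further: growth inhibition of human SK-MEL-2 cells measured with a cell viability assay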
Description: SANGER: Inhibition of human SK-MEL-2 cell growth in a cell viability assay.

SW 954 = settings: Homo sapiens, SW 954;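 further: growth inhibition of SW954 human cancer cells, read out as cell viability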
Description: SANGER: Inhibition of human SW954 cell growth in a cell viability assay.

BV-173 = settings: Homo sapiens, BV-173
Description: SANGER: Inhibition of human BV-173 cell growth in a cell viability assay.

TE-6 = settings: Homo sapiens, TE-6;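 further: growth inhibition of TE-6 cells, read out with a cell viability assay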
Description: SANGER: Inhibition of human TE-6 cell growth in a cell viability assay.

U-266 = settings: Homo sapiens, U-266
Description: SANGER: Inhibition of human U-266 cell growth in a cell viability assay.

UACC-257 = settings: Homo sapiens, UACC-257
Description: SANGER: Inhibition of human UACC-257 cell growth in a cell viability assay.

no-11 = settings: Homo sapiens;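 further: growth inhibition of human NO-11 cells, read out with a cell viability assay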
Description: SANGER: Inhibition of human no-11 cell growth in a cell viability assay.

CGTH-W-1 = settings: Homo sapiens, CGTH-W-1;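 further: growth inhibition of human CGTH-W-1 cells measured by cell viability assay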
Description: SANGER: Inhibition of human CGTH-W-1 cell growth in a cell viability assay.

SW982 = settings: Homo sapiens, SW982;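 further: growth inhibition of SW982 cells, read out with a cell viability assay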
Description: SANGER: Inhibition of human SW982 cell growth in a cell viability assay.

TGBC24TKB = settings: Homo sapiens, TGBC24TKB;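 further: growth inhibition of human TGBC24TKB cells, read out with a cell viability assay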
Description: SANGER: Inhibition of human TGBC24TKB cell growth in a cell viability assay.

Measured: IC50

COc1cc2ncn(-c3cc(OCc4ccccc4S(C)(=O)=O)c(C#N)s3)c2cc1OC [GSK-319347A]
> 5 µM: D-247MG | DJM-1 | DMS-79 | DU-4475 | EW-1 | EW-18 | GAK | GB-1 | HCC 2998 | HDLM-2 | IST-MEL1 | K562 | KALS-1 | KINGS-1 | L-363 | LOX IMVI | LS-123 | MOLT-4 | MS-1 | Mo | NB10 | NB17 | NCI-H1299 | NCI-H1304 | NCI-H1581 | NCI-H1770 | NCI-H526 | OCI-AML2 | OCUB-M | OVCAR-4 | PSN1 | RH-1 | RPMI-8226 | RPMI-8866 | RXF 393 | Ramos-2G6-4C10 | SCC-15 | SCH | SF-268 | SK-MEL-2 | SW 954 | BV-173 | TE-6 | U-266 | UACC-257 | no-11 | CGTH-W-1

CN(C)C(=N)NC(=N)N [METFORMIN]
4100 µM: NCI-H1770
18400 µM: HDLM-2
3840 µM: DU-4475
15600 µM: NCI-H1304
6740 µM: L-363
14900 µM: NCI-H1581
17300 µM: LS-123
10700 µM: LOX IMVI
10200 µM: DJM-1
4430 µM: OVCAR-4
> 20000 µM: D-247MG | GAK | GB-1 | HCC 2998 | IST-MEL1 | KINGS-1 | MOLT-4 | MS-1 | Mo | NB17 | OCI-AML2 | PSN1 | RXF 393 | Ramos-2G6-4C10 | SCC-15 | SCH | SF-268 | SK-MEL-2 | SW 954 | SW982 | U-266 | no-11 | CGTH-W-1
5850 µM: EW-18
5970 µM: DMS-79
13900 µM: UACC-257
14200 µM: TE-6
9030 µM: RPMI-8866
3020 µM: BV-173
16100 µM: NCI-H526
11400 µM: OCUB-M
10100 µM: NCI-H1299

CCN(CC)CCCCNc1ncc2cc(-c3cc(OC)cc(OC)c3)c(NC(=O)NC(C)(C)C)nc2n1 [PD-173074]
0.846 µM: BV-173
> 2 µM: D-247MG | DJM-1 | DU-4475 | EW-1 | EW-18 | GAK | GB-1 | HCC 2998 | HDLM-2 | IST-MEL1 | K562 | KALS-1 | KINGS-1 | L-363 | LOX IMVI | LS-123 | MOLT-4 | MS-1 | Mo | NB10 | NB17 | NCI-H1299 | NCI-H1304 | NCI-H1770 | NCI-H526 | OCI-AML2 | OCUB-M | OVCAR-4 | PSN1 | RH-1 | RPMI-8226 | RPMI-8866 | RXF 393 | Ramos-2G6-4C10 | SCC-15 | SCH | SF-268 | SK-MEL-2 | SW 954 | SW982 | TE-6 | TGBC24TKB | U-266 | UACC-257 | no-11 | CGTH-W-1
0.0123 µM: NCI-H1581
